Laboratory results published in paper PMC3958783, “Molybdenum Reduction to Molybdenum Blue in Serratia sp. Strain DRY5 Is Catalyzed by a Novel Molybdenum-Reducing Enzyme” (BioMed Research International, 2014).
Read-outs that look alike come from different tables or passages of the source.

What was measured:
Mo-reducing enzyme [1] = system: T1, Mo-reducing enzyme; experiment: initial rates of Mo blue formation, absorbance at […] nm, nonlinear regression; format: biochemical, Serratia sp. DRY5; details: assay 50 mM citrate phosphate pH 5.0, room temperature, read-out: apparent Km
T1 construct: native protein purified from cytoplasmic fraction (Mono Q twice, Zorbax GF-250); monomer, 105 kDa by gel filtration, 100 kDa by SDS-PAGE

Mo-reducing enzyme [2] = biological target: T1, Mo-reducing enzyme; experiment: Mo blue formation assay, […] nm; format: biochemical, Serratia sp. DRY5; details: general reagent, assay with 12-MP and NADH; for IC50: read-out: Concentrations which decrease enzyme activity by 50%

Q: For 12-MP, which Km (Mo-reducing enzyme [1]; 5 mM NADH, electron acceptor) is on record?
A: Its Km is 3870 µM.

Q: With `OCCS` [2-Mercaptoethanol] as the molecule, how does the IC50 (Mo-reducing enzyme [2]; thiol) read?
A: The IC50 was 5 mM.

Q: Which IC50 (Mo-reducing enzyme [2]; thiol) does the source give for `OC(CS)C(O)CS` (stereo not drawn) [DTT] here?
A: The IC50 was 10 mM.

Q: Which IC50 (Mo-reducing enzyme [2]; metal chelator) does the source give for `O=C(O)CN(CCN(CC(=O)O)CC(=O)O)CC(=O)O` [EDTA] here?
A: Its IC50 is 0.1 mM.

Q: For `NC(=O)C1=CN([C@@H]2O[C@H](COP(=O)(O)OP(=O)(O)OC[C@H]3O[C@@H](n4cnc5c(N)ncnc54)[C@H](O)[C@@H]3O)[C@@H](O)[C@H]2O)C=CC1` [NADH], which Km (Mo-reducing enzyme [1]; 15 mM 12-MP, electron donor) is on record?
A: The Km was 790 µM.

Q: With `CCCCCCCCCCCCOS(=O)(=O)O` [SDS] as the molecule, how does the “Concentrations which decrease enzyme activity by 50%” value (Mo-reducing enzyme [2]; denaturing detergent) read?
A: The value was 0.1%.
